Common to all, as to type: cell-based
The test system of one experiment is H118MG cells. Briefly: CellTiter-Glow cell viability, brain carcinoma cells H118MG. The note with it: 72 h, read-out: growth inhibition of brain carcinoma cells H118MG. The procedure:
(§1) Antitumor activity of the compounds and cisplatin as a positive control was assessed by using CellTiter-Glow® Luminescent Cell Viability assay (Promega #G7572) according to the manufacturer's instructions. The compounds were tested at 2 concentrations, 2 and 20 μM, in triplicate well conditions.
(§2) Tumor cells were grown at 37° C. in a humidified atmosphere with 5% CO2 in RPMI 1640 or DMEM medium, supplemented with 10% (v/v) fetal calf serum and 50 μg/ml gentamicin for up to 20 passages, and were passaged once or twice weekly. Cells were harvested using TrypLE or PBS buffer containing 1 mM EDTA, and the percentage of viable cells is determined using a cell counter.
(§3) Cells were harvested from exponential phase cultures, counted and plated in 96 well flat-bottom microtiter plates at a cell density depending on the cell line's growth rate (4,000-20,000 cells/well depending on the cell line's growth rate, up to 60,000 for hematological cancer cell lines) in RPMI 1640 or DMEM medium supplemented with 10% (v/v) fetal calf serum and 50 μg/ml gentamicin (140 μl/well). […]
(§4) Compounds were serially diluted in DMSO, transferred in cell culture medium, and added to the assay plates. […] Viability of cells was quantified by CellTiter-Glow® Luminescent Cell Viability assay (Promega). Luminescence was measured with the microplate luminometer (EnVision Multi Label Reader).
In general terms: ATP-based viability assays read luminescence as a measure of living cells.

For a further experiment, the system named is MeWo cell line. Briefly: CellTiter-Glow cell viability, melanoma MeWo. The settings on record: Homo sapiens, 72 h, read-out: growth inhibition of MeWo cell line. How it is done: as §1, §2, §3, §4
A further experiment deals with K562 cells. Briefly: CellTiter-Glow cell viability, leukemia K562. The settings on record: Homo sapiens, 72 h, read-out: % Inh @2 μM K562. How it is done: as §1, §2, §3, §4
Another experiment has as its system DMS114 cells. The experiment can be described thus: CellTiter-Glow cell viability, lung carcinoma DMS114. The note with it: Homo sapiens, DMS-114, 72 h, read-out: growth inhibition of lung carcinoma cells DMS114. The procedure:
as §1, §2, §3, §4

The next experiment concerns HCT116 cells. The experiment can be described thus: CellTiter-Glow cell viability, colon carcinoma HCT116. The settings on record: Homo sapiens, HCT-116, 72 h, read-out: % Inh @2 μM HCT116. The procedure:
as §1, §2, §3, §4

In another experiment the test system is A375 cells. The experiment can be described thus: CellTiter-Glow cell viability, melanoma A375. The settings on record: for inhibition at 2 µM: Homo sapiens, A-375, 72 h, read-out: % Inh @2 μM A375. How it is done: as §1, §2
(§5) Cells were harvested from exponential phase cultures, counted and plated in 96 well flat-bottom microtiter plates at a cell density depending on the cell line's growth rate (4,000-20,000 cells/well depending on the cell line's growth rate, up to 60,000 for hematological cancer cell lines) in RPMI 1640 or DMEM medium supplemented with 10% (v/v) fetal calf serum and 50 μg/ml gentamicin (140 μl/well). Cultures were incubated at 37° C. and 5% CO2 in a humidified atmosphere. After 24 h, 10 μl of test compounds or control medium are added and left on the cells for another 72 h.
(§6) Compounds were serially diluted in DMSO, transferred in cell culture medium, and added to the assay plates. The DMSO concentration was kept constant at <0.2% v/v across the assay plate. Viability of cells was quantified by CellTiter-Glow® Luminescent Cell Viability assay (Promega). Luminescence was measured with the microplate luminometer (EnVision Multi Label Reader).

The next experiment has as its system SK-Mel-5 cell line. Briefly: CellTiter-Glow cell viability, melanoma SK-Mel-5. The settings on record: for inhibition at 2 µM: Homo sapiens, SK-MEL-5, 72 h, read-out: % Inh @2 μM SK-Mel-5. How it is done: as §1, §2, §5, §6
For the next experiment, the system named is A2058 cells. The experiment can be described thus: CellTiter-Glow cell viability, melanoma A2058. The note with it: for inhibition at 2 µM: Homo sapiens, A2058, 72 h, read-out: % Inh @2 μM A2058. How it is done: as §1, §2, §5, §6
In the next experiment the test system is NAWALMA cells. The experiment can be described thus: CellTiter-Glow cell viability, lymphoma NAWALMA. The settings on record: 72 h, read-out: % Inh @2 μM NAWALMA. The procedure: as §1, §2, §5, §6
A further experiment relates to Daudi cells. The experiment can be described thus: CellTiter-Glow cell viability, lymphoma Daudi. The note with it: Homo sapiens, 72 h, read-out: % Inh @2 μM Daudi. How it is done:
as §1, §2, §5, §6

Another experiment concerns SK-N-SH cells. Briefly: CellTiter-Glow cell viability, brain carcinoma SK-N-SH. The note with it: Homo sapiens, 72 h, read-out: % Inh @2 μM SK-N-SH. The procedure:
as §1, §2, §5, §6

The subject of a further experiment is NCI-H292 cells. The experiment can be described thus: CellTiter-Glow cell viability, lung carcinoma NCI-H292. The settings on record: Homo sapiens, 72 h, read-out: % Inh @2 μM NCI-H292. How it is done:
as §1, §2, §5, §6

A further experiment deals with A673 cells. Briefly: CellTiter-Glow cell viability, Ewings sarcoma A673. The note with it: Homo sapiens, 72 h, read-out: % Inh @2 μM A673. How it is done: as §1, §2, §5, §6
A further experiment concerns SH-SY-5Y cells. The experiment can be described thus: CellTiter-Glow cell viability, brain carcinoma SH-SY-5Y. The note with it: Homo sapiens, SH-SY5Y, 72 h, read-out: % Inh @2 μM SH-SY-5Y. The procedure:
as §1, §2, §3, §4

The subject of the next experiment is U937 cell line. The experiment can be described thus: CellTiter-Glow cell viability, leukemia U937. The settings on record: Homo sapiens, U-937, 72 h, read-out: growth inhibition of U937 cell line. How it is done: as §1, §2, §3, §4

On to `COc1c(O)ccc2c(=O)c(O)c(-c3ccc(N(C)CCCCN(C)CCC4CCN(Cc5ccccc5)CC4)cc3)oc12` [SND437], for which the inhibition at 2 µM with H118MG cells was 97.6%; in the experiment on MeWo cell line, 93.2%; in the experiment with K562 cells it was 65.3%; with DMS114 cells, 98%; in the experiment on HCT116 cells, 83.7%; in the experiment with A375 cells it was 69.5%. Besides, the inhibition at 2 µM in the experiment with SK-Mel-5 cell line amounted to 99.7%; in the experiment with A2058 cells, 97.3%; with NAWALMA cells, 80.8%; with Daudi cells it was 59.4%; with SK-N-SH cells, 96.4%; in the experiment on NCI-H292 cells, 71.6%. Moreover, the inhibition at 2 µM in the experiment with A673 cells is 99.6%.

`COc1c(O)ccc2c(=O)c(O)c(-c3ccc(N(C)CCCCN(C)CCN4CCN(Cc5ccccc5)CC4)cc3)oc12` [SND438]: the “% Inh @2 μM A375” value with A375 cells (72 h) is 60.8%. The inhibition at 2 µM was 55.5% in the experiment with A375 cells; 61.1% in the experiment with SK-Mel-5 cell line; 72.1% with A2058 cells; 65.3% with NAWALMA cells; 50% with Daudi cells; 53.5% in the experiment with SK-N-SH cells. The values for the inhibition at 2 µM with NCI-H292 cells and in the experiment on A673 cells were 51.9% and 55.6%, respectively. Also, the “% Inh @2 μM SK-Mel-5” value in the experiment with SK-Mel-5 cell line (72 h) was found to be 50.7%. For the same compound, in the experiment with A2058 cells (72 h), the “% Inh @2 μM A2058” value amounted to 78.2%.

Turning to `COc1c(O)ccc2c(=O)c(O)c(-c3ccc(N(C)CCCCN(C)CCCN4CCCCC4)cc3)oc12` [SND439], the inhibition at 2 µM turned out to be 73.4% in the experiment with NAWALMA cells; 57.4% in the experiment on Daudi cells; 57.5% in the experiment with SK-N-SH cells; 62.6% in the experiment on NCI-H292 cells; 80.8% in the experiment with A673 cells.

As to `COc1c(O)ccc2c(=O)c(O)c(-c3ccc(N(C)CCCCNCCCNCCCCN)cc3)oc12` [SND445], the inhibition at 2 µM in the experiment with A673 cells came out at 61.8%.

`COc1c(O)ccc2c(=O)c(O)c(-c3ccc(N(C)CCCCNCCCN)cc3)oc12` [SND446]: the inhibition at 2 µM is 55.8% with SH-SY-5Y cells; 56.5% in the experiment with SK-Mel-5 cell line; 58% in the experiment with U937 cell line; 75.5% with NAWALMA cells; 82% with Daudi cells.

For `COc1c(-c2ccc(N(C)CCCCN(C)CCCN3CCCCC3)cc2)oc2c(OC)c(O)ccc2c1=O` [SND459], the inhibition at 2 µM with A673 cells worked out at 63.5%.
